Experimental data taken from article PMC5075052, “Modulation of the Substitution Pattern of 5-Aryl-2-Aminoimidazoles Allows Fine-Tuning of Their Antibiofilm Activity Spectrum and Toxicity” (Antimicrobial Agents and Chemotherapy, 2016).
Where two headings read alike, the source gives them in different places.

What was measured:
CsgD = conditions: S. Typhimurium, first 24 h of biofilm formation; cited from earlier work
E. coli TG1 = test: Monospecies bacterial biofilm inhibition, static peg assay; assay type: cell-based, Escherichia coli
Description: (§1) A static peg assay, described previously ([27], [74]), was used for bacterial biofilm formation. The Calgary biofilm device consists of a platform carrying 96 polystyrene pegs (Nunc no. 445497) that fits as a microtiter plate lid, with 1 peg hanging into each microtiter plate well (Nunc no. 269789). Twofold serial dilutions of the compounds (dissolved in 100% dimethyl sulfoxide [DMSO] or ethanol) in 100 μl liquid broth (TSB diluted 1/20) per well were prepared in the microtiter plate in duplicate or triplicate with a maximum concentration of 1,600 μM and a minimum concentration of 0.8 μM. Subsequently, an overnight culture of S. Typhimurium ATCC 14028, P. aeruginosa PA14, E. coli TG1, S. epidermidis, S. aureus SH1000, or S. aureus ATCC 6538 (all grown in LB) was diluted 1:100 into TSB diluted 1/20 (or TSB for S. epidermidis, S. aureus SH1000, and S. aureus ATCC 6538), whereas overnight cultures of S. liquefaciens MG44 and B. cepacia LMG1222T were diluted 1:50 into TSB diluted 1/20. P. gingivalis ATCC 33277 cultures were diluted in TSB diluted 1/20 to have a final concentration of 1 × 10^8 cells/ml. Next, 100 μl was added to each well of the microtiter plate, resulting in a total volume of 200 μl medium per well (final concentration range of compounds, 800 μM [2% DMSO or ethanol] to 0.4 μM [0.001% DMSO or ethanol]). In the next step, the pegged lid was placed on the microtiter plate and the plate was incubated for 24 h or 48 h at 25°C or 37°C without shaking. At 37°C, the plates were placed in a sealed container with wet towels on the bottom to prevent evaporation of the growth medium. Biofilms of P. gingivalis ATCC 33277 were grown anaerobically at 37°C for 72 h. During this incubation period, biofilms were formed on the surface of the pegs. After incubation, the optical density at 600 nm (OD600) for the planktonic cells in the microtiter plate was measured using a Synergy MX multimode reader (BioTek, Winooski, VT). This gives a first indication of the effect of the compounds on planktonic growth. For quantification of biofilm formation, the pegs were washed once in 200 μl PBS. The remaining attached bacteria were stained for 30 min with 200 μl 0.1% (wt/vol) crystal violet in an isopropanol-methanol-PBS solution (1:1:18, vol/vol). Excess stain was rinsed off by placing the pegs in a 96-well plate filled with 200 μl distilled water per well. After air drying of the pegs (30 min), the dye bound to the adherent biofilm was extracted with 30% glacial acetic acid (200 μl per well of a 96-well plate). The optical density at 570 nm (OD570) of each well was measured using a Synergy MX multimode reader (BioTek, Winooski, VT). The concentration of each compound needed to inhibit biofilm formation by 50% (BIC50) and the concentration of each compound needed to inhibit planktonic growth by 50% (IC50) were determined from the concentration gradient by using nonlinear curve fitting (GraphPad Prism software, version 5; GraphPad Software, Inc., La Jolla, CA). In the same assay, the effect on planktonic growth was evaluated. The activity was considered biofilm specific if the BIC50 was at least two times lower than the IC50. Data represent the means from at least 3 technical repeats with the corresponding 95% confidence intervals (provided in the supplemental material).

S. aureus SH1000 [1] = test: as above; assay type: cell-based, Staphylococcus aureus
Description: as §1

P. aeruginosa PAO1 = conditions: cited from earlier work
C. albicans SC5314 = test: Inhibition of C. albicans biofilms, CellTiter-Blue quantification; assay type: cell-based, Candida albicans; conditions: C. albicans SC5314, 37°C, CTB method, read-out: BIC50 (μM) for C. albicans SC5314 (37°C)
Description: The potential of the compounds to prevent C. albicans SC5314 biofilm formation was assessed using the CellTiter-Blue (CTB) quantification method ([75]). […]. Twofold serial dilutions of the compounds (dissolved in 100% DMSO or ethanol) in 100 μl RPMI 1640 medium per well were prepared in a round-bottom polystyrene 96-well microtiter plate (TPP; Trasadingen, Switzerland) in duplicate or triplicate with a maximum concentration of 1,600 μM and a minimum concentration of 0.8 μM. One hundred microliters of the cell suspension was added to each well of the microtiter plate, resulting in a total volume of 200 μl medium per well (final concentration range of compounds, 800 μM [2% DMSO or ethanol] to 0.4 μM [0.001% DMSO or ethanol]). After 16 h of static incubation at 37°C, the biofilms were washed and quantified by the CTB method as described previously ([73]).

[2] = tested on: S. Typhimurium ATCC 14028; test: Monospecies bacterial biofilm inhibition, static peg assay; assay type: cell-based, Salmonella enterica serovar Typhimurium; conditions: S. Typhimurium ATCC 14028, 25°C
Description: as §1

B. cepacia LMG1222T = test: as above; assay type: cell-based, Burkholderia cepacia; conditions: 25°C
Description: as §1

S. aureus ATCC 6538 = test: Monospecies bacterial biofilm inhibition, static peg assay (Calgary device, crystal violet; planktonic OD600); assay type: cell-based, Staphylococcus aureus
Description: as §1

S. epidermidis = test: Monospecies bacterial biofilm inhibition, static peg assay; assay type: cell-based, Staphylococcus epidermidis; conditions: 37°C
Description: as §1

S. liquefaciens MG44 = test: as above; assay type: cell-based, Serratia liquefaciens; conditions: S. liquefaciens MG44, 25°C
Description: as §1

P. aeruginosa PA14 = test: as above; assay type: cell-based, Pseudomonas aeruginosa
Description: as §1

S. aureus SH1000 [3] = tested on: S. aureus SH1000; design: method as in PMID 23208606, PMID 19959627; conditions: cited from earlier work
E. coli VR50 = tested on: E. coli VR50; design: method as in PMID 23208606, PMID 19959627; conditions: cited from earlier work
E. coli F18 = tested on: E. coli F18; design: method as in PMID 23208606, PMID 19959627; conditions: cited from earlier work
[4] = Escherichia coli, TG1, E. coli TG1, 25°C, read-out: BIC50
[5] = Escherichia coli, TG1, E. coli TG1, 25°C, read-out: IC50 (planktonic growth)
[6] = Staphylococcus aureus, SH1000, S. aureus SH1000, 37°C, read-out: BIC50
[7] = Staphylococcus aureus, SH1000, S. aureus SH1000, 37°C, read-out: IC50 (planktonic growth)
[8] = Salmonella enterica, read-out: BIC50
[9] = Salmonella enterica, read-out: IC50 (planktonic growth)
[10] = Burkholderia cepacia, read-out: BIC50
[11] = Burkholderia cepacia, read-out: IC50 (planktonic growth)
[12] = Staphylococcus aureus, ATCC6538, read-out: BIC50 (concentration needed to inhibit biofilm formation by 50%), S. aureus ATCC 6538, 37°C
[13] = Staphylococcus aureus, ATCC6538, read-out: IC50 (concentration needed to inhibit planktonic growth by 50%), S. aureus ATCC 6538, 37°C, planktonic OD600
[14] = Staphylococcus epidermidis, read-out: BIC50
[15] = Staphylococcus epidermidis, read-out: IC50 (planktonic growth)
[16] = Serratia liquefaciens, read-out: BIC50
[17] = Serratia liquefaciens, read-out: IC50 (planktonic growth)
[18] = Pseudomonas aeruginosa, PA14, P. aeruginosa PA14, 25°C, read-out: BIC50
[19] = Pseudomonas aeruginosa, PA14, P. aeruginosa PA14, 25°C, read-out: IC50 (planktonic growth)
[20] = read-out: IC50 (planktonic growth)

Compound	IC50 (E. coli TG1; [4]) [µM]	IC50 (E. coli TG1; [5]) [µM]	IC50 (S. aureus SH1000 [1]; [6]) [µM]	IC50 (S. aureus SH1000 [1]; [7]) [µM]	concentration at which biofilm formation is inhibited (P. aeruginosa PAO1) [µM]	IC50 (C. albicans SC5314; Candida albicans) [µM]	IC50 [2, 8] [µM]	IC50 [2, 9] [µM]	IC50 (B. cepacia LMG1222T; [10]) [µM]	IC50 (B. cepacia LMG1222T; [11]) [µM]	IC50 (S. aureus ATCC 6538; [12]) [µM]	IC50 (S. aureus ATCC 6538; [13]) [µM]	IC50 (S. epidermidis; [14]) [µM]	IC50 (S. epidermidis; [15]) [µM]	IC50 (S. liquefaciens MG44; [16]) [µM]	IC50 (S. liquefaciens MG44; [17]) [µM]	IC50 (P. aeruginosa PA14; [18]) [µM]	IC50 (P. aeruginosa PA14; [19]) [µM]	further results
Nc1ncc(-c2ccccc2)[nH]1 [5-phenyl-2-aminoimidazole]	–	–	–	–	–	–	–	–	–	–	–	–	–	–	–	–	–	–	effect on transcription of CsgD and regulon genes csgB and adrA (CsgD): reduces the transcription of CsgD
O=c1cc(-c2ccccc2)oc2cc(O)c(O)c(O)c12 [Baicalein, reference compound]	1.2	~23.5	77.5	> 400	20	273	> 400	> 400	48.9	> 400	> 400	> 400	> 400	> 400	> 400	> 400	> 400	> 400	–
O=C(N/N=C/c1ccc([N+](=O)[O-])o1)c1ccc(O)cc1 [Nifuroxazide, reference compound]	12.2	> 400	> 400	> 400	70	> 400	> 400	> 400	> 400	> 400	65.5	125	46.9	~43.4	> 400	> 400	> 400	> 400	–
Tannic acid [reference compound]	–	–	–	–	–	–	–	–	–	–	–	–	–	–	–	–	–	–	IC50 (E. coli TG1; E. coli TG1, 25°C, read-out: BIC50): ~195 µM; IC50 (E. coli TG1; E. coli TG1, 25°C, read-out: IC50 (planktonic growth)): > 400 µM; concentration at which biofilm formation is inhibited (S. aureus SH1000 [3]): 20 µM; IC50 (S. aureus SH1000 [1]; S. aureus SH1000, 37°C, read-out: BIC50): 115 µM; IC50 (S. aureus SH1000 [1]; S. aureus SH1000, 37°C, read-out: IC50 (planktonic growth)): > 400 µM; concentration at which biofilm formation is inhibited (E. coli VR50): 20 µM; IC50 (C. albicans SC5314): > 400 µM; IC50 ([2]; read-out: BIC50): 18.8 µM; IC50 [2, 20]: > 400 µM; IC50 (B. cepacia LMG1222T; read-out: BIC50): 1.9 µM; IC50 (B. cepacia LMG1222T; [20]): > 400 µM; IC50 (S. aureus ATCC 6538; S. aureus ATCC 6538, 37°C, planktonic OD600, read-out: IC50 (concentration needed to inhibit planktonic growth by 50%)): > 400 µM; IC50 (S. aureus ATCC 6538; S. aureus ATCC 6538, 37°C, read-out: BIC50 (concentration needed to inhibit biofilm formation by 50%)): ~300 µM; concentration at which biofilm formation is inhibited (E. coli F18): 20 µM; IC50 (S. epidermidis; read-out: BIC50): > 400 µM; IC50 (S. epidermidis; [20]): > 400 µM; IC50 (S. liquefaciens MG44; read-out: BIC50): > 400 µM; IC50 (S. liquefaciens MG44; [20]): > 400 µM; IC50 (P. aeruginosa PA14; P. aeruginosa PA14, 25°C, read-out: BIC50): 27.7 µM; IC50 (P. aeruginosa PA14; P. aeruginosa PA14, 25°C, read-out: IC50 (planktonic growth)): > 400 µM
